Experiments:
[1] = clinical trials (Castell et al.); cited from earlier work
[2] = dosed either orally or directly into the colon of a mammal; cited from earlier work
[3] = Pharmacokinetics of R-baclofen in dogs after oral dosage forms of compound (1); parameters: species or system Beagle dogs; settings: dog, in vivo, iv, 10 mg-eq/kg R-baclofen administered intravenously
Experimental: The dogs were fasted overnight before the study and for 4 hours post-dosing. Blood samples (1 mL) were obtained via the femoral vein at intervals over 24 hours after oral dosing. Blood was quenched immediately using acetonitrile with 1% formic acid and then frozen at −20° C. until analyzed.
The concentration of R-baclofen in quenched whole blood was determined using an API 2000 LC/MS/MS instrument equipped with a Shimadzu binary pump and a Leap CTC autosampler. A Phenomenex Hydro-RP 4.6×50 mm column operating at room temperature was used. The mobile phases were (A) water with 0.1% formic acid, and (B) acetonitrile with 0.1% formic acid. The gradient condition was: 5% B for 0.5 min, then to 95% B in 1.8 min; then maintained at 95% B for 1.2 min. The mobile phase was then returned to 5% B for 2 min. A TurbolonSpray source was used on the API 2000. The analysis was done in positive ion mode and an MRM transition of m/z 214/151 was used in the analysis of R-baclofen. Ten (10) μL of the blood sample was injected. The peaks were integrated using Analyst™ Software ([…]) to provide the concentration of R-baclofen in the blood sample.
Pharmacokinetic profiles of sustained release oral dosage forms prepared according to Examples 1-4 at a dose of 10 mg compound (1) following oral administration to dogs is shown in FIG. 5.

[4] = 2 mg t.i.d. R-baclofen equivalent to racemic baclofen 10 mg t.i.d.; cited from earlier work
[5] = in vivo; cited from earlier work

Which “reflux episodes in clinical trials” value [1] does the source give for `CC(C)C(=O)O[C@@H](OC(=O)NC[C@H](CC(=O)O)c1ccc(Cl)cc1)C(C)C` [Compound (1), (3R)-4-{[(1S)-2-methyl-1-(2-methylpropanoyloxy)propoxy]carbonylamino}-3-(4-chlorophenyl)butanoic acid] here?
The value was “reduce reflux episodes”.

And the “bioavailability as R-baclofen” value [2]?
Its value is “high bioavailability”.

Which results are given for `NC[C@H](CC(=O)O)c1ccc(Cl)cc1` [R-baclofen, R-(−)-baclofen]?
AUC(0-inf) [3]: 1980 ng·h/mL; potency of orally administered R-baclofen relative to orally administered racemic baclofen [4]: about 5 times

With `NCC(CC(=O)O)c1ccc(Cl)cc1` (racemic) [baclofen, (±)-4-Amino-3-(4-chlorophenyl)butanoic acid] as the compound, how does the elimination half-life [5] read?
Its elimination half-life is 3 to 4 h.
